# Test results taken from patent US20150329515A1, “COMPOSITION AND METHOD FOR TREATING OR PREVENTING INFLUENZA VIRUS INFECTION” (National Defense Medical Center, priority 2014, published 2015).
# What was measured:
# in vitro = conditions: dog
# [1] = tested on: influenza A/New York/469/2004-like flu (H3N2) virus; experiment: microbe, parasite or virus in culture; conditions: H3N2, MDCK, read-out: EC50 (μM), H3N2
# [2] = tested on: influenza A/New York/469/2004-like flu (H3N2) virus; experiment: in vitro; conditions: dog
# [3] = CC50 (μM), Table 4 (H3N2 series), MDCK cells
SMILES,CC50 (in vitro; [3]),EC50 [1],melting point,selectivity ratio at 24 h [2],CC50 (in vitro)
"COc1cc2oc(-c3cccc(Br)c3)cc(=O)c2c(O)c1OC [Compound 4b, 2-(3-Bromophenyl)-5-hydroxy-6,7-dimethoxy-4H-chromen-4-one]",66.5 µM,133 µM,188 to 189 °C,0.5,
"NC(=O)c1ncn([C@@H]2O[C@H](CO)[C@@H](O)[C@H]2O)n1 [Ribavirin, reference compound]",> 300 µM,25.6 µM,,> 11.7,
"COc1c(O)cc2oc(-c3ccc(Br)cc3)cc(=O)c2c1O [Compound 5c, 2-(4-Bromophenyl)-5,7-dihydroxy-6-methoxy-4H-chromen-4-one]",> 300 µM,34.5 µM,275 to 276 °C,> 8.7,
"COc1c(O)cc2oc(-c3cccc(Br)c3)cc(=O)c2c1O [Compound 5b, 2-(3-Bromophenyl)-5,7-dihydroxy-6-methoxy-4H-chromen-4-one]",> 300 µM,17.3 µM,,> 17.3,
"O=c1cc(-c2ccc(Br)cc2)oc2cc(O)c(O)c(O)c12 [Compound 6c, 2-(4-Bromophenyl)-5,6,7-trihydroxy-4H-chromen-4-one]",> 300 µM,35.9 µM,,> 8.4,
"COc1cc2oc(-c3ccc(Br)cc3)cc(=O)c2c(O)c1OC [Compound 4c, 2-(4-Bromophenyl)-5-hydroxy-6,7-dimethoxy-4H-chromen-4-one]",> 300 µM,,206 to 208 °C,,
"COc1cc2oc(-c3cccc(Br)c3)cc(=O)c2c(OC)c1OC [Compound 2l, 2-(3-Bromophenyl)-5,6,7-trimethoxy-4H-chromen-4-one]",64.1 µM,128 µM,190 to 191 °C,0.5,
"COc1cc2oc(-c3ccccc3Br)cc(=O)c2c(OC)c1OC [Compound 2k, 2-(2-Bromophenyl)-5,6,7-trimethoxy-4H-chromen-4-one]",128 µM,64.1 µM,122 to 123 °C,2,
"COc1c(O)cc2oc(-c3ccccc3Br)cc(=O)c2c1O [Compound 5a, 2-(2-Bromophenyl)-5,7-dihydroxy-6-methoxy-4H-chromen-4-one]",> 300 µM,17.3 µM,,> 17.3,
"COc1cc2oc(-c3ccccc3Br)cc(=O)c2c(O)c1OC [Compound 4a, 2-(2-Bromophenyl)-5-hydroxy-6,7-dimethoxy-4H-chromen-4-one]",200 µM,133 µM,221 to 222 °C,1.5,
"CCOC(=O)C1=C[C@@H](OC(CC)CC)[C@H](NC(C)=O)[C@@H](N)C1 [oseltamivir, reference compound]",,,,,320 µM
"O=c1cc(-c2ccccc2Br)oc2cc(O)c(O)c(O)c12 [Compound 6a, 2-(2-Bromophenyl)-5,6,7-trihydroxy-4H-chromen-4-one]",> 300 µM,71.8 µM,249 to 251 °C,> 4.2,
"O=c1cc(-c2cccc(Br)c2)oc2cc(O)c(O)c(O)c12 [Compound 6b, 2-(3-Bromophenyl)-5,6,7-trihydroxy-4H-chromen-4-one]",> 300 µM,35.9 µM,255 to 256 °C,> 8.4,
"COc1cc2oc(-c3ccc(Br)cc3)cc(=O)c2c(OC)c1OC [Compound 2m, 2-(4-Bromophenyl)-5,6,7-trimethoxy-4H-chromen-4-one]",> 300 µM,,165 to 166 °C,,
"O=C(O)[C@H]1O[C@@H](Oc2cc3oc(-c4ccccc4)cc(=O)c3c(O)c2O)[C@H](O)[C@@H](O)[C@@H]1O [Baicalin, reference compound]",> 300 µM,104 µM,,> 2.9,
"O=c1cc(-c2ccccc2)oc2cc(O)c(O)c(O)c12 [Baicalein, reference compound]",> 300 µM,92.3 µM,,> 3.3,
